Values of other authors as cited in patent publication US20100192311A1, “METHOD FOR PERFUMING FABRICS” (priority 2009, published 2010).
Counter-ions that a name gives are not always drawn.

Key:
[1] = in water
[2] = system: typical Gram negative and positive bacteria, fungi and yeasts; settings: level from about 0.001% to about 0.5% by weight of the usage composition

water solubility [1]	SMILES	effective against typical Gram negative and positive bacteria, fungi and yeasts [2]
about 2.67%	OCCOc1ccccc1 [2-phenoxyethanol]	
about 0.46%	O=[N+]([O-])C1(Br)COCOC1 [Bronidox L, 5-bromo-5-nitro-1,3-dioxane]	
more than 50%	CC1(C)C(=O)N(CO)C(=O)N1CO [DMDM hydantoin, 1,3-bis(hydroxymethyl)-5,5-dimethyl-2,4-imidazolidinedione]	
about 2%	OCCc1ccccc1 [Phenyl Ethyl Alcohol, 2-phenylethanol]	
	Cn1sc2c(c1=O)CCC2 [Promexal, 2-methyl-4,5-trimethylene-4-isothiazolin-3-one]	effective
	O=c1[nH]sc2ccccc12 [Proxel, 1,2-benzisothiazolin-3-one]	effective
about 4%	OCc1ccccc1 [benzyl alcohol]	
about 1.8%	[H]/N=C(\N/C(=N/[H])NCCCCCCNC(=N)NC(=N)Nc1ccc(Cl)cc1)Nc1ccc(Cl)cc1 [chlorhexidine diacetate salt, 1,1′-hexamethylene bis(5-(p-chlorophenyl)biguanide), reference compound]	
about 70%	[H]/N=C(\N/C(=N/[H])NCCCCCCNC(=N)NC(=N)Nc1ccc(Cl)cc1)Nc1ccc(Cl)cc1 [chlorhexidine digluconate salt, 1,1′-hexamethylene bis(5-(p-chlorophenyl)biguanide), reference compound]	
about 0.8%	CC(C)(O)C(Cl)(Cl)Cl [chlorobutanol, 1,1,1-Trichloro-2-methylpropan-2-ol]	

SMILES	water solubility [1]	effective against typical Gram negative and positive bacteria, fungi and yeasts [2]
[Na+].[O-][n+]1ccccc1[S-] [sodium pyrithione]	about 50%	
